Reference: patent US7846973B2, “Chemical process and new crystalline form” (Theravance, Inc., priority 2004, dated 2010)
Counter-ions that a name gives are not always drawn.

Assay: Relative thermodynamic stability of crystalline forms of compound (Ia) monohydrochloride
Type: physicochemical
Conditions: Form 2 versus Form 1 (form of WO 2004/106279)
Source text: Such methods can be used to provide seeds of Form 2 material.

thermodynamic stability of Form 2 crystals compared with Form 1 crystals: more thermodynamically stable
SMILES: O=CNc1cc([C@@H](O)CNCCc2ccc(NC[C@H](O)c3ccccc3)cc2)ccc1O [Form 2, N-{2-[4-((R)-2-hydroxy-2-phenylethylamino)phenyl]ethyl}-(R)-2-hydroxy-2-(3-formamido-4-hydroxyphenyl)ethylamine monohydrochloride]
